Entries after “also recorded” stand apart in the source; their conditions may differ.
What was measured:
[1] = test system: human mesenchymal stem cells (hMSCs); experiment: Live cell binding through immunofluorescence; type: cell-based; details: 10^12 phages/ml
Method: Human mesenchymal stem cells (hMSCs) were grown to roughly 60% plate coverage in a 48-well tissue culture plate according to the company Lonza's culturing protocols. […] The hMSCs were then blocked with 0.5% BSA (dissolved in cell media) for 1 hour. The cell media for the hMSCs was then replaced with 1 ml of new cell media having of concentration of 10^12 phages/ml. Next, the plates were washed once with 400 μl of phosphate buffered saline (PBS) at a pH of 7.4. The hMSCs were then incubated with Anti-M13 Bacteriophage Coat Protein g8p antibody [RL-ph2] (ab9225) at a 1:1000 dilution in cell media (200 μl per well). The wells were then washed again with PBS (400 μl per wash). Next, the hMSCs were incubated with the secondary antibody, Goat-anti mouse AF-488 (Abcam) for 1 hour (1 ug/ml final concentration of antibody in media). The wells were then washed again with PBS (400 μl per wash). A Hoechst nuclear stain was used to stain the nuclei (PureBlu™ Hoechst 33342 Nuclear Staining Dye #1351304 from BioRad) according to the company's protocol. Cell Mask™ Orange Plasma Membrane Stain was used to stain membranes (CellMask™ Orange Plasma Membrane Stain Catalog number: C10045 from Thermo Fisher Scientific) according to the company's protocol. The phages binding to the cells were then imaged on a Nikon Eclipse Ti fluorescent microscope.

BMPR1A = target: T1, BMPR1A (Homo sapiens, UniProt P36894); experiment: Biopanning of Ph.D.-12 phage library on immobilized BMPR1A-Fc; type: binding; details: peptide displayed on p3 of M13 phage; 3 rounds of panning
T1 construct: purchased G&P Biosciences
T1 sequence (P36894 24-152 limits assumed): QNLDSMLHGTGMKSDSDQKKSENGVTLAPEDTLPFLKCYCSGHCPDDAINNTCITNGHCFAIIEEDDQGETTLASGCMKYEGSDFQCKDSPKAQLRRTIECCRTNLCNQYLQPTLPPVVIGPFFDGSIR
Method: The Ph.D.™-12 phage library was diluted in tris-buffered saline mixed with Tween-20 (TBS+0.1% v/v Tween-20 and abbreviated TBST) for a final concentration of 2×10^11 phage in 1 mL of TBST. The diluted library was then pipetted onto one of the wells of a 12-well poly-L-lysine plate followed by rocking the plate gently for 60 minutes at room temperature. […] This supernatant served as the starting phage library for subsequent binding selections. The phages which stuck to the plate were discarded.
This procedure is only applicable if the charge of the desired protein to be immobilized is negative, determined by checking the pI value of the protein. […]. This procedure was written for 12-well plates coated in poly-L-lysine (positively charged). Separate solutions of BMPR1A-Fc and BMPR2-Fc were prepared at 80 μg/ml in Tris-buffered saline (pH 7.5). In separate wells and on separate poly-L-lysine coated 12-well plates, 0.3 ml of each solution of receptor was added. The solutions of BMPR1A-Fc and BMPR2-Fc were swirled around the plate surface until the entire surface was wet. The plates were then incubated overnight at 4° C. with gentle agitation in a humidified container (a sealed plastic box with damp paper towels). Each individual receptor was now immobilized.
The following selection procedure is based off of the direct coating procedure outlined in the Ph.D.™-12 Phage Display Libraries instructional manual (New England Biolabs) with some alterations. This procedure was carried out after immobilizing the targets BMPR1A-Fc and BMPR2-Fc in a 12-well poly-L-lysine coated plate. A stock solution of tetracycline was prepared (20 mg/ml in 1:1 ethanol:water). The coating solution containing the target receptors was poured off followed by firmly slapping the plates face down on a clean paper towel. Each well was then filled with blocking buffer (0.1 M NaHCO3 (pH 8.6), 5 mg/mL BSA, 0.02% NaN3. Filter sterilize, store at 4° C.) and incubated for 1 hour at 4° C. The blocking solution was then poured off followed by firmly slapping the plates down against a clean paper towel. Each plate was washed rapidly 6 times with Tris-buffered saline mixed with Tween-20 (TBS+0.1% v/v Tween-20). The plate was slapped against a clean paper towel each time. 1 ml of the phage library created from the negative selection process was then pipetted onto each of the target coated wells. The plates were then rocked gently at room temperature for 60 min. The non-binding phages were then discarded by pouring off the supernatant and slapping the plate face-down on a clean paper towel. The plate was then washed 10 times with TBST followed by slapping the plate face-down on a clean paper towel each time (a clean section of paper towel was used each time to prevent cross-contamination). The bound phages were then eluted by incubating with a nonspecific disruption buffer (0.2 M Glycine-HCl (pH 2.2), 1 mg/ml bovine serum albumin (BSA) for 15 minutes. The eluate (immersed in the disruption buffer) was then pipetted into a microcentrifuge tube followed by neutralization with 150 μl of 1 M Tris-HCl (pH 9.1). A small portion (˜1 μl) of this eluate could be titered and sequenced if desired. The rest of the eluate was amplified (see amplification of phage library section). Once amplified, the eluate was also titered. Determine the concentration of amplified phages by counting the blue plaques in titering as described. Dilute the amplified library to contain 2×10^11 phages in 1 mL of TBS (as little as 10^9 plaque forming units per ml can be used if there is not enough). A second poly-L-lysine 12-well plate was then coated with the target receptors to allow for a second round of biopanning carried out using the same steps except that the Tween-20 concentration in the wash steps was raised to 0.5% (v/v). The eluate from the second round was then amplified, titered and used in an additional 3rd round of panning on newly receptor coated plates. […]

hMSCs = experiment: qPCR of osteoblast marker genes; type: cell-based, human; details: 26 days on phage films; normalized to GAPDH; relative to negative control (basal media)
Method: Gene expression was normalized to the reference gene, GAPDH. All fold changes are relative to a negative control (basal media with no peptides or phage) which represents the baseline at zero-fold change. […] All data represent the mean±standard deviation. (*P≤0.05, **P≤0.01, ***P≤0.001).
hMSCs were seeded (1×10^3 cells per culture plate) on to phage films as well as relevant control plates. The cells were then cultured for 26 days. The cells then were processed with a Power SYBR™ Green Cells-to-CT™ Kit. The number of cells was adjusted to be 5×10^3 cells per lysis reaction. All other parameters were kept the same as the manufacturer's protocol for this kit. The gene expression of osteopontin, osteocalcin, and collagen type 1A were measured as a fold change normalized to the reference gene GAPDH and a negative control (basal media+ cells but no phage) such that the baseline at zero-fold change represents the negative control. For temperature cycling and measuring CT values, a MiniOpticon Real Time PCR System was used.

Sequence: SGTQDSMVGWNK (Completely synthesized in the lab - Ph.D.-12 Phage Display Peptide Library Kit (New England Biolabs))
- Binding of peptide-bearing phages to live hMSCs [1]: bound to what appeared to be the same location as the outer membrane; also recorded: demonstrated an ability to bind to the outer membrane
- Binding to BMPR1A found by biopanning (frequency among sequenced plaques) (BMPR1A): showed up as a result of biopanning on both BMPR1A alone and BMPR2 alone; also recorded: discovered to bind
- Osteopontin gene expression, fold change (hMSCs): greater osteopontin production than the wild type, but not greater than the Lonza osteogenic media; also recorded: statistically significant advantage over the wild type phage films

Sequence: VHVPLHRGAVSA (Completely synthesized in the lab - Ph.D.-12 Phage Display Peptide Library Kit (New England Biolabs))
- Binding of peptide-bearing phages to live hMSCs [1]: bound to what appeared to be the same location as the outer membrane; also recorded: demonstrated an ability to bind to the outer membrane
- Binding to BMPR1A found by biopanning (frequency among sequenced plaques) (BMPR1A): discovered to bind
- Osteopontin gene expression, fold change (hMSCs): greater osteopontin production than the Lonza osteogenic media; also recorded: statistically significant advantage over the wild type phage films; also recorded: statistically significant advantage over the positive control
